Test results taken from patent publication EP1339379B1, “NOVEL USE OF PROTEIN HYDROLYSATES” (Henkel Kommanditgesellschaft auf Aktien, priority 2000, dated 2002).

Assay: Hair-restructuring effect by HP-DSC: melting point of permed hair strands after post-treatment with the active
Conditions: melting point of the hair (DSC, Perkin Elmer DSC-7); permed strands dipped 10 min at 23°C in 1% aqueous solution of the active at pH 3, rinsed 1 min, dried, rested 16 h; comparison without post-treatment 149,8
Description: Strähnen der Fa. Alkinco (0,5g, Code 6634) wurden einer herkömmlichen Dauerwellbehandlungen mit dem Handelsprodukt Poly Lock-Normale Dauerwelle unterzogen. Im Rahmen dieser Dauerwellbehandlung wurden die Fasern in einem ersten Schritt für 40 Minuten bei Raumtemperatur der Reduktionslösung (enthaltend 7,9 Gew.-% Thioglykolsäure) ausgesetzt, mit reinem Wasser gespült und anschließend bei Raumtemperatur für 10 Minuten fixiert (Oxidationslösung, enthaltend 2,6 Gew.-% Wasserstoffperoxid). Nach der oxidativen Behandlung wurden die Fasern gespült und getrocknet.
Die Strähnen wurden jeweils bei einer Temperatur von 23°C 10 Minuten in eine 1% ige wäßrige Lösung der jeweiligen Wirkstoffe bei einem pH - Wert von 3, welcher mit Natronlauge oder Salzsäure eingestellt wurde, getaucht. Anschließend wurde jede Haarsträhne 1 Minute mit klarem Wasser gespült, getrocknet und 16 h ruhen gelassen.
Mittels einer DSC-Analyse (Perkin Elmer DSC-7) wurden die folgenden in Tabelle 1 dargestellten Schmelzpunkte ermittelt. Eine genaue Beschreibung der Methode findet sich beispielsweise in der DE 196 173 95 A1

| Substance | Schmelzpunkt in °C |
| --- | --- |
| Poly-L-Serin | 151,9 °C |
| Poly-D/L-Alanin | 151,8 °C |
